Assay results taken from ChEMBL document CHEMBL1139630, “Structure-activity relationship of N-methyl-bisindolylmaleimide derivatives as cell death inhibitors” (Bioorg Med Chem Lett, 2005).

Columns and labels:
[1] = target: Ribosomal protein S6 kinase alpha-3 (Homo sapiens) (UniProt P51812); experiment: Residual activity of Ribosomal S6 kinase 2 (RSK2) at 1 uM
[2] = target: T1, AMP-activated protein kinase, AMPK (Homo sapiens) (UniProt P54646+O43741+P54619+Q9UGJ0+Q9Y478+Q13131+Q9UGI9); experiment: Residual activity of AMP-activated Protein Kinase (AMPK) at 1 uM
[3] = target: T2, Serine/threonine-protein kinase Chk1 (Homo sapiens) (UniProt O14757); experiment: Residual activity of Serine/threonine-protein kinase Chk1 (CHK1) at 50 uM
T2 sequence (whole entry): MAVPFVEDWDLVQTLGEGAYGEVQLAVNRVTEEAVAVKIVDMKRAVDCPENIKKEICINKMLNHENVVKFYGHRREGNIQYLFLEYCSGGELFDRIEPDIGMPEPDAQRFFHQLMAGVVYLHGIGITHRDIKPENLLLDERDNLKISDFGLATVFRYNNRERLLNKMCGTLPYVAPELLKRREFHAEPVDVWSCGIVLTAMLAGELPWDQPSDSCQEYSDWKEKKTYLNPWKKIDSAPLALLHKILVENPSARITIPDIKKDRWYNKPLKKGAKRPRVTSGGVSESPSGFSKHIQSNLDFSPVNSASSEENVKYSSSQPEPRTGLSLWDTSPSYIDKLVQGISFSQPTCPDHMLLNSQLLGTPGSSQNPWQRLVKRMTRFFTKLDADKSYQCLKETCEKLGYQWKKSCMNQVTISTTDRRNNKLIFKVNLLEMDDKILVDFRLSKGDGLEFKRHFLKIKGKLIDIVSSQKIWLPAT

[4] = target: T1, AMP-activated protein kinase, AMPK (Homo sapiens); experiment: Residual activity of AMP-activated Protein Kinase (AMPK) at 50 uM
[5] = target: Ribosomal protein S6 kinase alpha-5 (Homo sapiens) (UniProt O75582); experiment: Residual activity of MSK-1 kinase (MSK1) at 50 uM
[6] = target: T3, Ribosomal protein S6 kinase beta-1 (Homo sapiens, UniProt P23443); details: 50 uM
Target sequence in this assay (P23443 whole entry, looked up): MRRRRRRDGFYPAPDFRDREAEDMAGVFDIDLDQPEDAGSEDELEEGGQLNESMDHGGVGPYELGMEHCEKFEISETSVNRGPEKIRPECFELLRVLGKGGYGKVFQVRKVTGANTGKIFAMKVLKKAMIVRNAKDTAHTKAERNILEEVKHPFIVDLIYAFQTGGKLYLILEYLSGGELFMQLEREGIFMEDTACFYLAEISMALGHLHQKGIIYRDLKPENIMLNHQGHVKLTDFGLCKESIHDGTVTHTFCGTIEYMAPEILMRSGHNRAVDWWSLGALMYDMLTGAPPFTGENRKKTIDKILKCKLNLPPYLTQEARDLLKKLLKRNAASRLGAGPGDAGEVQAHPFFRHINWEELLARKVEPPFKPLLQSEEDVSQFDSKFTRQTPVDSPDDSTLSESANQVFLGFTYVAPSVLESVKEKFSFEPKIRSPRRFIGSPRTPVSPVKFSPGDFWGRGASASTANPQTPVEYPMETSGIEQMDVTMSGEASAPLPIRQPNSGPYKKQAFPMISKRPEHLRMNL
Description: Inhibition of Ribosomal protein S6 kinase 1 (S6K1) at 50 uM

[7] = target: Ribosomal protein S6 kinase alpha-3 (Homo sapiens) (UniProt P51812); experiment: Residual activity of Ribosomal S6 kinase 2 (RSK2) at 50 uM
[8] = target: T3, Ribosomal protein S6 kinase beta-1; experiment: Inhibition of Ribosomal protein S6 kinase 1 (S6K1)
Target sequence in this assay (P23443 whole entry): as the sequence (P23443 whole entry, looked up) above

[9] = target: Glycogen synthase kinase-3 beta (Homo sapiens) (UniProt P49841); experiment: Residual activity of Glycogen synthase kinase-3 beta (GSK3-beta) at 50 uM
[10] = target: T4, Serine/threonine-protein kinase Sgk1 (Homo sapiens) (UniProt O00141); experiment: Residual activity of Serum/glucocorticoid regulated kinase (SGK) at 50 uM
T4 sequence (whole entry): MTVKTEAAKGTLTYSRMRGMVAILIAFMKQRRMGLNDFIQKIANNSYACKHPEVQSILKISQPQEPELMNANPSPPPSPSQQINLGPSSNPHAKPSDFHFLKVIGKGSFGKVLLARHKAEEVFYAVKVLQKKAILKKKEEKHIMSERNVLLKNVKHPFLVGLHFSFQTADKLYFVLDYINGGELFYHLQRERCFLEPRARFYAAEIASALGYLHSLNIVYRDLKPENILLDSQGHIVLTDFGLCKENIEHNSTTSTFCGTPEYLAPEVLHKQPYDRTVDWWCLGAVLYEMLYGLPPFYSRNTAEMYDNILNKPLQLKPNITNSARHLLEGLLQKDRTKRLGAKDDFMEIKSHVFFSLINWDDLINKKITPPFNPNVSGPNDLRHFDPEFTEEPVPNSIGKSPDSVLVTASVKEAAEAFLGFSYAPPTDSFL

[11] = target: Protein kinase C alpha type (Homo sapiens) (UniProt P17252); experiment: Residual activity of Protein kinase C alpha (PKCalpha) at 50 uM

Sequence of Ribosomal protein S6 kinase alpha-3 (Homo sapiens) (P51812 whole entry): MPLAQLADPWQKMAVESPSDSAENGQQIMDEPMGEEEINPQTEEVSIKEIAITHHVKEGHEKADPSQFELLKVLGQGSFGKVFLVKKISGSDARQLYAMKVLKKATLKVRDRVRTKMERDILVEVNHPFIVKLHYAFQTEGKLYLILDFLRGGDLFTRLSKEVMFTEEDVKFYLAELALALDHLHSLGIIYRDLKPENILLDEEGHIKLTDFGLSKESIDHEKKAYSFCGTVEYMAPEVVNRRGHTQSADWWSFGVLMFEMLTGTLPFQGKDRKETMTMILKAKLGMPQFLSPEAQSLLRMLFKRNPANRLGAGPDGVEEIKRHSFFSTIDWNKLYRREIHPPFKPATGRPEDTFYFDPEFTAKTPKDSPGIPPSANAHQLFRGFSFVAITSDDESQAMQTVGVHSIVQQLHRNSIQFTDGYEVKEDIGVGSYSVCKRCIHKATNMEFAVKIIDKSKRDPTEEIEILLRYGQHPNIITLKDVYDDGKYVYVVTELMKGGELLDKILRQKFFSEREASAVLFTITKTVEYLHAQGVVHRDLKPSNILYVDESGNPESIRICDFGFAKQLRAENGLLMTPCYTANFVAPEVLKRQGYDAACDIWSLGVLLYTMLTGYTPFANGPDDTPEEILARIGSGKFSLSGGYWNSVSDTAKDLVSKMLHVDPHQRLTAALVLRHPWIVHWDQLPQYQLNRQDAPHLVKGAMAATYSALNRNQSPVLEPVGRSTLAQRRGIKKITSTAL
Sequence of Ribosomal protein S6 kinase alpha-5 (Homo sapiens) (O75582 whole entry, looked up): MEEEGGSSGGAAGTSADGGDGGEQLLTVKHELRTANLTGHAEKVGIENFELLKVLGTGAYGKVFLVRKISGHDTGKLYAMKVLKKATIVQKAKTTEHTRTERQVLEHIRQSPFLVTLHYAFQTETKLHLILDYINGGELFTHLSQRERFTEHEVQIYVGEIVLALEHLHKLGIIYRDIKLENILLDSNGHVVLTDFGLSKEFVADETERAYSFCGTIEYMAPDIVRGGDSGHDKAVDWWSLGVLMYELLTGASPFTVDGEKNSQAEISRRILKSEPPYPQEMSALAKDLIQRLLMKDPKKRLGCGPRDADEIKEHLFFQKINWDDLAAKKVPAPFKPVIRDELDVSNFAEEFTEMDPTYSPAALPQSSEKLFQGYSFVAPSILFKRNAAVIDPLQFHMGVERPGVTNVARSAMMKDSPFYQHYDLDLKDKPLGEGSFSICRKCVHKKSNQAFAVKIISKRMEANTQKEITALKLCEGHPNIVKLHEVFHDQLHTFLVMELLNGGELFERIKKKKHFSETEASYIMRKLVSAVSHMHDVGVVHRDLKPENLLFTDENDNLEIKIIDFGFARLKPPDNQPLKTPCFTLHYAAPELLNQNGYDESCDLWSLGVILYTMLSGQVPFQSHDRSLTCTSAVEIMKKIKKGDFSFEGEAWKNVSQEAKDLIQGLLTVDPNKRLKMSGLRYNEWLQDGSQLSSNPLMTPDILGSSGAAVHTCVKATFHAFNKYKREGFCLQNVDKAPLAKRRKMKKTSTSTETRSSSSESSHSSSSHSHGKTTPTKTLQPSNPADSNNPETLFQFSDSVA
Sequence of Glycogen synthase kinase-3 beta (Homo sapiens) (P49841 whole entry, looked up): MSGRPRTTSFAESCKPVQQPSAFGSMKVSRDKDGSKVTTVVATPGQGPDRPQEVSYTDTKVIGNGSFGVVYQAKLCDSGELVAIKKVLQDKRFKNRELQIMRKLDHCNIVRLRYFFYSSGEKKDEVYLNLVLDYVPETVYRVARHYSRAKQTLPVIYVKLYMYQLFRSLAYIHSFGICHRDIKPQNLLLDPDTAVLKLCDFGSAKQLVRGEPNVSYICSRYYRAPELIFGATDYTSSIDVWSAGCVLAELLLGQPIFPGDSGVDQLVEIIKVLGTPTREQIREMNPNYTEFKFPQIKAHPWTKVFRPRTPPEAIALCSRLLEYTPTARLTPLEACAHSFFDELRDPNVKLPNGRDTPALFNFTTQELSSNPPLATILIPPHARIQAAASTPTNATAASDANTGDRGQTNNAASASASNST

With `CN(C)CCCn1cc(C2=C(c3c[nH]c4ccccc34)C(=O)NC2=O)c2ccccc21` the residual activity [1] was 9% and the residual activity [2] was 54%.

Work on `CN1C(=O)C(c2c[nH]c3ccccc23)=C(c2cn(CCCN)c3ccccc23)C1=O` yielded a residual activity [3] of 93%, a residual activity [4] of 88% and a residual activity [5] of 90%. It also gave a residual activity [6] of 28%, a residual activity [7] of 106% and an IC50 [8] of 25 µM. For the same compound, the residual activity [9] was 94%, the residual activity [10] was 109% and the residual activity [11] was 66%.
